Where a SMILES comes first, the peptide text is derived from it. [ ]: non-standard residue; d: D form. Ac6c = NC1(C(=O)O)CCCCC1; Sar = CNCC(=O)O
Tests used:
Assay type in all cases: cell-based
human AT1R [1] = biological target: T1, human AT1R (Homo sapiens, UniProt P30556); test: IP1 accumulation assay (IP1 G-protein assay), human AT1R; settings: for Emax: read-out: Span (relative to hAngII)
T1 sequence (P30556 1-359): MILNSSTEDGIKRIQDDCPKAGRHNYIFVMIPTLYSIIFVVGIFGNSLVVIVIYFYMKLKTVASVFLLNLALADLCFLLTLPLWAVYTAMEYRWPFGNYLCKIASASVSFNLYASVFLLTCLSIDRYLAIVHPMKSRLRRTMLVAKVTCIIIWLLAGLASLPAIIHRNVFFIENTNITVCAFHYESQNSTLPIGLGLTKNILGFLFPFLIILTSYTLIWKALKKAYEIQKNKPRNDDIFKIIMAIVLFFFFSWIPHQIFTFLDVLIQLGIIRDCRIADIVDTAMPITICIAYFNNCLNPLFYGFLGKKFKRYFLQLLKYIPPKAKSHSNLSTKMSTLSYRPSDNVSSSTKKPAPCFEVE
Protocol: (§1) A secondary measure of G protein coupling efficacy was also performed. IP3 is generated by activation of phospholipase C by Gα-q. IP3 is degraded to IP1, which can be forced to accumulate in cells by blocking degradation with lithium chloride. Thus we measured accumulation of IP1 to determine ligand efficacy for G protein activation.
(§2) IP1 accumulation generated by human and rat angiotensin 2 type 1 receptor (human AT1R and rat AT1aR, respectively) was measured with IP-One Tb kits purchased from Cisbio and used per the manufacturer's instructions. Clonal stably transfected cell lines expressing human AT1TR or rat AT1aR were used for all experiments.
(§3) For assays, 4,000-8,000 cells were seeded per well in 384-well small-volume microplates “HiBase” small-volume plate in volumes of 20 uL and allowed to grow overnight at 37° C. in 5% CO2. Cell growth media was then replaced with stimulation buffer supplied by Cisbio containing 50 mM lithium chloride. […] For agonist detection, peptides were then further diluted in stimulation buffer to add peptide to the cells to reach final concentrations ranging from 100 uM to 1 pM. Following addition of peptides, cells were incubated at 37° C. in 5% CO2 for 30 minutes and then lysed with 4 uL of pre-mixed HTRF IP-One reagents diluted per manufacturer's instructions (Cisbio). Microplates were incubated for 60-90 minutes at room temperature and then time-resolved fluorescence intensities were measured using a PHERAstar Plus microplate reader from BMG Labtech. IP1 accumulation was measured as change in ratio of time-resolved fluorescent intensities measured at 665 nm and 620 nm.

rat AT1aR [2] = biological target: T2, rat AT1aR (Rattus norvegicus, UniProt P25095); test: IP1 accumulation assay (IP1 G-protein assay), rat AT1aR; settings: for Emax: read-out: Span (relative to hAngII)
T2 sequence (P25095 1-359): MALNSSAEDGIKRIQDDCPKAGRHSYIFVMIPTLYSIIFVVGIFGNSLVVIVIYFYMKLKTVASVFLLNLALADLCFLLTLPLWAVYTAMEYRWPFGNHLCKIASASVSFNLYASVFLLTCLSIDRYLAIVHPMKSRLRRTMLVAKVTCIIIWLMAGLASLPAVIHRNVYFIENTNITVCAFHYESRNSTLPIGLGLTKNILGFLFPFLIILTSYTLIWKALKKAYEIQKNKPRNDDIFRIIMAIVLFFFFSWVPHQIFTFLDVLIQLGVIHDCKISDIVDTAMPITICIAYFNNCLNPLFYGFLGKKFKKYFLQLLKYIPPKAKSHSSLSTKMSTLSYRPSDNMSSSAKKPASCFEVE
Protocol: as §1, §2, §3

human AT1R [3] = biological target: T1, human AT1R; test: beta-arrestin2 recruitment assay (PathHunter), human AT1R; settings: for Emax: 1 h, read-out: Span (relative to hAngII)
Protocol: (§4) The proximal event in β-arrestin function mediated by GPCRs is recruitment to receptors following ligand binding and receptor phosphorylation by GRK's. Thus, the measure of β-arrestin recruitment was used to determine ligand efficacy for β-arrestin function.
(§5) B-arrestin-2 recruitment to the human and rat angiotensin 2 type 1 receptor (human AT1R and rat AT1aR, respectively) was measured with the PathHunter™ μl-arrestin assay (DiscoveRx Corporation, Fremont Calif.). Cells, plasmid(s), and detection reagent(s) were purchased from DiscoveRx, and assays were performed per manufacturer's instructions. Human AT1R and rat AT1aR were cloned into the pCMV-ProLink vector, verified by sequencing, and transfected into PathHunter β-arrestin HEK293 cells. Stably transfected clonal cell lines were selected with Hygromycin and G418. These clonal cell lines were used for all experiments.
(§6) For assays, 4,000-8,000 cells were seeded per well in 384-well microplates “HiBase” small-volume plate in volumes of 20 uL and grown overnight in the incubator (37° C., 5% CO2, saturated humidity). Peptides were dissolved in DMSO to a concentration of 10 mM. Peptides were then further diluted in assay buffer (Hank's balanced salt solution with 20 mM HEPES) to add peptide to the cells to reach final concentrations ranging from 100 μM to 1 pM. Cells were then incubated for 60 minutes at 37° C. in 5% CO2, followed by addition of 2 μL of PathHunter Detection Reagent to each well. The microplates were then incubated at room temperature for 60 minutes, and then luminescence was measured using a PHERAstar Plus microplate reader from BMG Labtech. B-arrestin-2 recruitment to receptors was measured as relative luminescence intensity expressed in arbitrary units.

rat AT1aR [4] = biological target: T2, rat AT1aR; test: beta-arrestin2 recruitment assay (PathHunter), rat AT1aR; settings: for Emax: 1 h, read-out: Span (relative to hAngII)
Protocol: as §4, §5, §6

| SMILES | Emax (human AT1R [1]) | Emax (rat AT1aR [2]) | Emax (human AT1R [3]) | Emax (rat AT1aR [4]) | EC50 (human AT1R [1]; read-out: EC50) | EC50 (human AT1R [1]; read-out: pEC50 (converted)) | EC50 (rat AT1aR [2]; read-out: EC50) | EC50 (rat AT1aR [2]; read-out: pEC50 (converted)) | EC50 (human AT1R [3]; read-out: EC50) | EC50 (human AT1R [3]; read-out: pEC50 (converted)) | EC50 (rat AT1aR [4]; read-out: EC50) | EC50 (rat AT1aR [4]; read-out: pEC50 (converted)) |
| --- | --- | --- | --- | --- | --- | --- | --- | --- | --- | --- | --- | --- |
| CNCC(=O)N[C@@H](CCCNC(=N)N)C(=O)N[C@H](C(=O)N[C@@H](Cc1ccc(O)cc1)C(=O)N1CCC[C@H]1C(=O)N[C@@H](Cc1c[nH]cn1)C(=O)N1CCC[C@H]1C(=O)N[C@@H](CC(C)C)C(=O)O)C(C)C [SEQ ID NO: 5, Sar-Arg-Val-Tyr-Pro-His-Pro-Leu] (H-[Sar]RVYPHPL-OH; N-terminus and C-terminus assumed) | < 103% | < 104% | < 101% | < 105% | – | – | – | – | – | – | – | – |
| CNCC(=O)N[C@@H](CCCNC(=N)N)C(=O)N[C@H](C(=O)N[C@@H](Cc1ccc(O)cc1)C(=O)N1CCC[C@H]1C(=O)N[C@@H](Cc1c[nH]cn1)C(=O)N1CCC[C@H]1C(=O)N[C@H](C(=O)O)C(C)C)C(C)C [SEQ ID NO: 6, Sar-Arg-Val-Tyr-Pro-His-Pro-Val] (H-[Sar]RVYPHPV-OH; N-terminus and C-terminus assumed) | < 103% | < 104% | < 101% | < 105% | – | – | – | – | – | – | – | – |
| CNCC(=O)N[C@@H](CCCNC(=N)N)C(=O)N[C@H](C(=O)N[C@@H](Cc1ccc(O)cc1)C(=O)N1CCC[C@H]1C(=O)N[C@@H](Cc1c[nH]cn1)C(=O)N1CCC[C@H]1C(=O)N[C@H](C(=O)O)[C@@H](C)O)C(C)C [SEQ ID NO: 7, Sar-Arg-Val-Tyr-Pro-His-Pro-Thr] (H-[Sar]RVYPHPT-OH) | – | – | < 101% | < 105% | > 10000 nM | > 0.631 nM | > 0.6 nM | > 0.631 nM | > 3.2 nM | > 3.16 nM | > 3.2 nM | > 3.16 nM |
| CNCC(=O)N[C@@H](CCCNC(=N)N)C(=O)N[C@H](C(=O)N[C@@H](Cc1ccc(O)cc1)C(=O)N1CCC[C@H]1C(=O)N[C@@H](Cc1c[nH]cn1)C(=O)N1CCC[C@H]1C(=O)N[C@@H](CCSC)C(=O)O)C(C)C [SEQ ID NO: 9, Sar-Arg-Val-Tyr-Pro-His-Pro-Met] (H-[Sar]RVYPHPM-OH; N-terminus and C-terminus assumed) | < 103% | < 104% | < 101% | < 105% | – | – | – | – | – | – | – | – |
| CNCC(=O)N[C@@H](CCCNC(=N)N)C(=O)N[C@H](C(=O)N[C@@H](Cc1ccc(O)cc1)C(=O)N1CCC[C@H]1C(=O)N[C@@H](Cc1c[nH]cn1)C(=O)N1CCC[C@H]1C(=O)N[C@@H](Cc1ccccc1)C(=O)O)C(C)C [SEQ ID NO: 10, Sar-Arg-Val-Tyr-Pro-His-Pro-Phe] (H-[Sar]RVYPHPF-OH; N-terminus and C-terminus assumed) | < 103% | < 104% | < 101% | > 105% | – | – | – | – | – | – | – | – |
| CC[C@H](C)[C@H](NC(=O)[C@@H]1CCCN1C(=O)[C@H](Cc1c[nH]cn1)NC(=O)C1(NC(=O)[C@H](Cc2ccc(O)cc2)NC(=O)[C@@H](NC(=O)[C@H](CCCNC(=N)N)NC(=O)CNC)C(C)C)CCCCC1)C(=O)O [SEQ ID NO: 11, Sar-Arg-Val-Tyr-cyHex-His-Pro-Ile] (H-[Sar]RVY[Ac6c]HPI-OH) | < 103% | – | < 101% | < 105% | > 1.3 nM | > 0.631 nM | > 0.6 nM | > 0.631 nM | > 3.2 nM | > 3.16 nM | > 3.2 nM | > 3.16 nM |
| CNCC(=O)N[C@@H](CCCNC(=N)N)C(=O)N[C@H](C(=O)N[C@@H](Cc1ccc(O)cc1)C(=O)NC1(C(=O)N[C@@H](Cc2c[nH]cn2)C(=O)N2CCC[C@H]2C(=O)N[C@@H](CC(C)C)C(=O)O)CCCCC1)C(C)C [SEQ ID NO: 12, Sar-Arg-Val-Tyr-cyHex-His-Pro-Leu] (H-[Sar]RVY[Ac6c]HPL-OH) | < 103% | < 104% | < 101% | < 105% | > 1.3 nM | > 0.631 nM | > 0.6 nM | > 0.631 nM | > 3.2 nM | > 3.16 nM | > 3.2 nM | > 3.16 nM |
| CNCC(=O)N[C@@H](CCCNC(=N)N)C(=O)N[C@H](C(=O)N[C@@H](Cc1ccc(O)cc1)C(=O)NC1(C(=O)N[C@@H](Cc2c[nH]cn2)C(=O)N2CCC[C@H]2C(=O)N[C@H](C(=O)O)C(C)C)CCCCC1)C(C)C [SEQ ID NO: 13, Sar-Arg-Val-Tyr-cyHex-His-Pro-Val] (H-[Sar]RVY[Ac6c]HPV-OH) | – | – | 103% | < 105% | > 1.3 nM | > 0.631 nM | > 0.6 nM | > 0.631 nM | > 3.2 nM | > 3.16 nM | > 3.2 nM | > 3.16 nM |
| CNCC(=O)N[C@@H](CCCNC(=N)N)C(=O)N[C@H](C(=O)N[C@@H](Cc1ccc(O)cc1)C(=O)NC1(C(=O)N[C@@H](Cc2c[nH]cn2)C(=O)N2CCC[C@H]2C(=O)N[C@H](C(=O)O)[C@@H](C)O)CCCCC1)C(C)C [SEQ ID NO: 14, Sar-Arg-Val-Tyr-cyHex-His-Pro-Thr] (H-[Sar]RVY[Ac6c]HPT-OH) | – | – | < 101% | < 105% | > 1.3 nM | > 0.631 nM | > 0.6 nM | > 0.631 nM | > 3.2 nM | > 3.16 nM | > 3.2 nM | > 3.16 nM |
| CNCC(=O)N[C@@H](CCCNC(=N)N)C(=O)N[C@H](C(=O)N[C@@H](Cc1ccc(O)cc1)C(=O)NC1(C(=O)N[C@@H](Cc2c[nH]cn2)C(=O)N2CCC[C@H]2C(=O)N[C@@H](CO)C(=O)O)CCCCC1)C(C)C [SEQ ID NO: 15, Sar-Arg-Val-Tyr-cyHex-His-Pro-Ser] (H-[Sar]RVY[Ac6c]HPS-OH) | – | < 104% | < 101% | < 105% | > 1.3 nM | > 0.631 nM | > 0.6 nM | > 0.631 nM | > 3.2 nM | > 3.16 nM | > 3.2 nM | > 3.16 nM |
| CNCC(=O)N[C@@H](CCCNC(=N)N)C(=O)N[C@H](C(=O)N[C@@H](Cc1ccc(O)cc1)C(=O)NC1(C(=O)N[C@@H](Cc2c[nH]cn2)C(=O)N2CCC[C@H]2C(=O)N[C@@H](CCSC)C(=O)O)CCCCC1)C(C)C [SEQ ID NO: 16, Sar-Arg-Val-Tyr-cyHex-His-Pro-Met] (H-[Sar]RVY[Ac6c]HPM-OH) | < 103% | < 104% | < 101% | < 105% | > 1.3 nM | > 0.631 nM | > 0.6 nM | > 0.631 nM | > 3.2 nM | > 3.16 nM | > 3.2 nM | > 3.16 nM |

From patent US8946142B2, “Beta-arrestin effectors and compositions and methods of use thereof” (Trevena, Inc., priority 2012, dated 2015)
